Measured values as given in patent US20240166652A1, “MODULATORS OF THE INTEGRATED STRESS PATHWAY” (Calico Life Sciences LLC, priority 2017, published 2024).

System: ATF4 luciferase reporter in HEK293T cells
Test: ATF4-Luc assay (ATF4 luciferase reporter, tunicamycin-treated HEK293T cells)
Assay type: cell-based, human
Details: Homo sapiens, HEK-293T; HEK293T cells carrying the ATF4 luciferase reporter, 1 μg/mL tunicamycin, 7 hours

Molecule `CN(C)c1ccc(CCOCC(=O)NC23CC(NC(=O)COc4ccc(Cl)c(F)c4)(C2)C3)cc1` [Compound 143, 2-(4-chloro-3-fluorophenoxy)-N-[3-(2-{2-[4-(dimethylamino)phenyl]ethoxy}-acetamido)bicyclo[1.1.1]pentan-1-yl]acetamide] has an EC50 of over 2 µM.
In the case of `Cc1ccc(COCC(=O)NC23CC(NC(=O)COc4ccc(Cl)c(F)c4)(C2)C3)cc1` [Compound 144, 2-(4-chloro-3-fluorophenoxy)-N-(3-{2-[(4-methylphenyl)methoxy]acetamido}-bicyclo[1.1.1]pentan-1-yl)acetamide], the EC50 is reported as 0.25 to 0.5 µM.
Molecule `CN(C)c1cccc(CCOCC(=O)NC23CC(NC(=O)COc4ccc(Cl)c(F)c4)(C2)C3)c1` [Compound 145, 2-(4-chloro-3-fluorophenoxy)-N-[3-(2-{2-[3-(dimethylamino)phenyl]ethoxy}-acetamido)bicyclo[1.1.1]pentan-1-yl]acetamide] has an EC50 of over 2 µM.
Work on `O=C(COc1cccc(Cl)c1)NC12CC(NC(=O)COc3ccc(Cl)c(F)c3)(C1)C2` [Compound 146, 2-(4-chloro-3-fluorophenoxy)-N-{3-{2-(3-chlorophenoxy)acetamido}-bicyclo[1.1.1]pentan-1-yl}acetamide] yielded an EC50 of under 0.01 µM.
`O=C(CCOc1cccc(Cl)c1)NC12CC(NC(=O)COc3ccc(Cl)c(F)c3)(C1)C2` [Compound 147, N-{3-[2-(4-chloro-3-fluorophenoxy)acetamido]bicyclo[1.1.1]pentan-1-yl}-3-(3-chlorophenoxy)propanamide] gave an EC50 of 0.05 to 0.25 µM.
Molecule `O=C(CCCOc1cccc(Cl)c1)NC12CC(NC(=O)COc3ccc(Cl)c(F)c3)(C1)C2` [Compound 148, N-{3-[2-(4-chloro-3-fluorophenoxy)acetamido]bicyclo[1.1.1]pentan-1-yl}-4-(3-chlorophenoxy)butanamide] has an EC50 of 0.05 to 0.25 µM.
`O=C(COCCc1ccc(F)cc1)NC12CC(NC(=O)COc3ccc(Cl)c(Cl)c3)(C1)C2` [Compound 149, 2-(3,4-dichlorophenoxy)-N-(3-{2-[2-(4-fluorophenyl)ethoxy]acetamido}-bicyclo[1.1.1]pentan-1-yl)acetamide] showed an EC50 of 0.01 to 0.05 µM.
`O=C(COCCc1cccc(F)c1)NC12CC(NC(=O)COc3ccc(Cl)c(Cl)c3)(C1)C2` [Compound 150, 2-(3,4-dichlorophenoxy)-N-(3-{2-[2-(3-fluorophenyl)ethoxy]acetamido}-bicyclo[1.1.1]pentan-1-yl)acetamide] was tested, and the EC50 was 0.01 to 0.05 µM.
Molecule `O=C(COCCc1cccc(Cl)c1)NC12CC(NC(=O)COc3ccc(Cl)c(Cl)c3)(C1)C2` [Compound 151, 2-[2-(3-chlorophenyl)ethoxy]-N-{3-[2-(3,4-dichlorophenoxy)acetamido]-bicyclo[1.1.1]pentan-1-yl}acetamide] has an EC50 of under 0.01 µM.
In the case of `Cc1cccc(CCOCC(=O)NC23CC(NC(=O)COc4ccc(Cl)c(Cl)c4)(C2)C3)c1` [Compound 152, 2-(3,4-dichlorophenoxy)-N-(3-{2-[2-(3-methylphenyl)ethoxy]-acetamido}bicyclo[1.1.1]pentan-1-yl)acetamide], the EC50 is reported as 0.05 to 0.25 µM.
For `Cc1cccc(COCC(=O)NC23CC(NC(=O)COc4ccc(Cl)c(Cl)c4)(C2)C3)n1` [Compound 153, 2-(3,4-dichlorophenoxy)-N-(3-{2-[(6-methylpyridin-2-yl)methoxy]acetamido}bicyclo[1.1.1]pentan-1-yl)acetamide], the EC50 was 0.05 to 0.25 µM.
Work on `Cc1ccc(CCOCC(=O)NC23CC(NC(=O)COc4ccc(Cl)c(Cl)c4)(C2)C3)cc1` [Compound 154, 2-(3,4-dichlorophenoxy)-N-(3-{2-[2-(4-methylphenyl)ethoxy]acetamido}-bicyclo[1.1.1]pentan-1-yl)acetamide] yielded an EC50 of 0.25 to 0.5 µM.
Work on `O=C(COCCc1ccc(Cl)cc1)NC12CC(NC(=O)COc3ccc(Cl)c(Cl)c3)(C1)C2` [Compound 155, 2-[2-(4-chlorophenyl)ethoxy]-N-{3-[2-(3,4-dichlorophenoxy)acetamido]bicyclo-[1.1.1]pentan-1-yl}acetamide] yielded an EC50 of 0.01 to 0.05 µM.
In the case of `O=C(COCc1ccc(Cl)cc1)NC12CC(NC(=O)COc3ccc(Cl)c(Cl)c3)(C1)C2` [Compound 156, 2-[(4-chlorophenyl)methoxy]-N-{3-[2-(3,4-dichlorophenoxy)acetamido]-bicyclo[1.1.1]pentan-1-yl}acetamide], the EC50 is reported as 0.01 to 0.05 µM.
Work on `O=C(COCc1ccc(F)cc1)NC12CC(NC(=O)COc3ccc(Cl)c(Cl)c3)(C1)C2` [Compound 157, 2-(3,4-dichlorophenoxy)-N-(3-{2-[(4-fluorophenyl)methoxy]acetamido}-bicyclo[1.1.1]pentan-1-yl)acetamide] yielded an EC50 of 0.01 to 0.05 µM.
`O=C(COCc1cccc(Cl)c1)NC12CC(NC(=O)COc3ccc(Cl)c(Cl)c3)(C1)C2` [Compound 158, 2-[(3-chlorophenyl)methoxy]-N-{3-[2-(3,4-dichlorophenoxy)acetamido]-bicyclo[1.1.1]pentan-1-yl}acetamide] gave an EC50 of under 0.01 µM.
With `N#Cc1ccc(COCC(=O)NC23CC(NC(=O)COc4ccc(Cl)c(Cl)c4)(C2)C3)cc1` [Compound 159, 2-[(4-cyanophenyl)methoxy]-N-{3-[2-(3,4-dichlorophenoxy)acetamido]-bicyclo[1.1.1]pentan-1-yl}acetamide] the EC50 was 0.05 to 0.25 µM.
Molecule `Cc1ccc(COCC(=O)NC23CC(NC(=O)COc4ccc(Cl)c(Cl)c4)(C2)C3)cc1` [Compound 160, 2-(3,4-dichlorophenoxy)-N-(3-{2-[(4-methylphenyl)methoxy]-acetamido}bicyclo[1.1.1]pentan-1-yl)acetamide] has an EC50 of 0.05 to 0.25 µM.
In the case of `N#Cc1cccc(COCC(=O)NC23CC(NC(=O)COc4ccc(Cl)c(Cl)c4)(C2)C3)c1` [Compound 161, 2-[(3-cyanophenyl)methoxy]-N-{3-[2-(3,4-dichlorophenoxy)acetamido]bicyclo[1.1.1]pentan-1-yl}acetamide], the EC50 is reported as 0.05 to 0.25 µM.
In the case of `Cc1cccc(COCC(=O)NC23CC(NC(=O)COc4ccc(Cl)c(Cl)c4)(C2)C3)c1` [Compound 162, 2-(3,4-dichlorophenoxy)-N-(3-{2-[(3-methylphenyl)methoxy]-acetamido}bicyclo[1.1.1]pentan-1-yl)acetamide], the EC50 is reported as 0.01 to 0.05 µM.
In the case of `O=C(CCOCc1cccc(Cl)c1)NC12CC(NC(=O)COc3ccc(Cl)c(F)c3)(C1)C2` [Compound 163, N-{3-[2-(4-chloro-3-fluorophenoxy)acetamido]bicyclo[1.1.1]pentan-1-yl}-3-[(3-chlorophenyl)methoxy]propanamide], the EC50 is reported as 0.25 to 0.5 µM.
Work on `O=C(COc1ccc(Cl)c(F)c1)NC12CC(NC(=O)OCc3cccc(Cl)c3)(C1)C2` [Compound 164, (3-chlorophenyl)methyl {3-[2-(4-chloro-3-fluorophenoxy)-acetamido]bicyclo[1.1.1]pentan-1-yl}carbamate] yielded an EC50 of 0.5 to 2 µM.
With `O=C(COc1ccc(Cl)c(F)c1)NC12CC(NC(=O)OCCc3cccc(Cl)c3)(C1)C2` [Compound 165, 2-(3-chlorophenyl)ethyl {3-[2-(4-chloro-3-fluorophenoxy)-acetamido]bicyclo[1.1.1]pentan-1-yl}carbamate] the EC50 was 0.05 to 0.25 µM.
`O=C(COc1ccc(Cl)c(F)c1)NC12CC(NC(=O)OCCCc3cccc(Cl)c3)(C1)C2` [Compound 166, 3-(3-chlorophenyl)propyl {3-[2-(4-chloro-3-fluorophenoxy)acetamido]-bicyclo[1.1.1]pentan-1-yl}carbamate] showed an EC50 of 0.25 to 0.5 µM.
Molecule `O=C(CCOCc1cccc(Cl)c1)NC12CC(NC(=O)COc3ccc(Cl)c(Cl)c3)(C1)C2` [Compound 167, 3-[(3-chlorophenyl)methoxy]-N-{3-[2-(3,4-dichlorophenoxy)acetamido]-bicyclo[1.1.1]pentan-1-yl}propanamide] has an EC50 of 0.5 to 2 µM.
Work on `O=C(CCCOc1cccc(Cl)c1)NC12CC(NC(=O)COc3ccc(Cl)c(Cl)c3)(C1)C2` [Compound 168, 4-(3-chlorophenoxy)-N-{3-[2-(3,4-dichlorophenoxy)acetamido]-bicyclo[1.1.1]pentan-1-yl}butanamide] yielded an EC50 of 0.05 to 0.25 µM.
In the case of `O=C(CCOc1cccc(Cl)c1)NC12CC(NC(=O)COc3ccc(Cl)c(Cl)c3)(C1)C2` [Compound 169, 3-(3-chlorophenoxy)-N-{3-[2-(3,4-dichlorophenoxy)acetamido]bicyclo-[1.1.1]pentan-1-yl}propanamide], the EC50 is reported as 0.25 to 0.5 µM.
`CN(C)c1cccc(CCOCC(=O)NC23CC(NC(=O)COc4ccc(Cl)c(Cl)c4)(C2)C3)c1` [Compound 170, 2-(3,4-dichlorophenoxy)-N-[3-(2-{2-[3-(dimethylamino)phenyl]ethoxy}-acetamido)bicyclo[1.1.1]pentan-1-yl]acetamide] was tested, and the EC50 was over 2 µM.
In the case of `O=C(COc1cccc(Cl)c1)NC12CC(NC(=O)COc3ccc(Cl)c(Cl)c3)(C1)C2` [Compound 171, 2-(3-chlorophenoxy)-N-{3-[2-(3,4-dichlorophenoxy)acetamido]-bicyclo[1.1.1]pentan-1-yl}acetamide], the EC50 is reported as under 0.01 µM.
`O=C(COc1ccc(Cl)c(Cl)c1)NC12CC(NC(=O)OCc3cccc(Cl)c3)(C1)C2` [Compound 172, (3-chlorophenyl)methyl {3-[2-(3,4-dichlorophenoxy)acetamido]-bicyclo[1.1.1]pentan-1-yl}carbamate] gave an EC50 of 0.25 to 0.5 µM.
`O=C(COc1ccc(Cl)c(Cl)c1)NC12CC(NC(=O)OCCc3cccc(Cl)c3)(C1)C2` [Compound 173, 2-(3-chlorophenyl)ethyl {3-[2-(3,4-dichlorophenoxy)acetamido]-bicyclo[1.1.1]pentan-1-yl}carbamate] showed an EC50 of 0.05 to 0.25 µM.
For `O=C(COc1ccc(Cl)c(Cl)c1)NC12CC(NC(=O)OCCCc3cccc(Cl)c3)(C1)C2` [Compound 174, 3-(3-chlorophenyl)propyl {3-[2-(3,4-dichlorophenoxy)acetamido]-bicyclo[1.1.1]pentan-1-yl}carbamate], the EC50 was 0.25 to 0.5 µM.
`O=C(COc1ccc(Cl)cc1)NC12CCC(NC(=O)COc3ccc(Cl)cc3)(C1)C2` [Compound 176, N,N′-(bicyclo[2.1.1]hexane-1,4-diyl)bis[2-(4-chlorophenoxy)acetamide]] gave an EC50 of 0.01 to 0.05 µM.
For `O=C(COc1ccc(Cl)c(F)c1)NC12CCC(NC(=O)COc3ccc(Cl)c(F)c3)(C1)C2` [Compound 177, N,N′-(bicyclo[2.1.1]hexane-1,4-diyl)bis[2-(4-chloro-3-fluorophenoxy)acetamide]], the EC50 was under 0.01 µM.
In the case of `O=C(COc1ccc(Cl)cc1)NC12CCCC(NC(=O)COc3ccc(Cl)cc3)(C1)C2` [Compound 178, N,N′-(bicyclo[3.1.1]heptane-1,5-diyl)bis[2-(4-chlorophenoxy)acetamide]], the EC50 is reported as over 2 µM.
